# According to ChEMBL document CHEMBL3507680, “University of Dundee, Gates Library screen for HepG2 cell viability”:
# Experiment: Human HepG2 cell viability assay in 384 well format
# Assay type: toxicity, cell-based
# Design: dose 125 nL, time 70.5 hour; concentration not given beside the values
# Conditions: HepG2 cells, read-out: Inhibition
structure (smiles),measurement,value
Cn1cccc1C(=O)NCc1cnc2n1CCN(C(=O)c1ccoc1)C2,cytotoxicity at 70.5 h,-7.47%
CC(C)n1cc(CN2CCCN(C(=O)c3nccnc3N)CC2)cn1,cytotoxicity at 70.5 h,7.08%
Cc1cc2nccc(C3CCCN(C(=O)c4ccccc4F)C3)n2n1 (stereo unspecified),cytotoxicity at 70.5 h,-1.93%
Cc1nnsc1CNC(=O)c1ccc2c(c1)nc(N1CCOCC1)n2C,cytotoxicity at 70.5 h,-12.9%
c1cnc(N2CCOCC3(CN(Cc4ccsc4)CCO3)C2)nc1 (stereo unspecified),cytotoxicity at 70.5 h,-3.74%
Cc1nc(C)n(CC2CCCN2Cc2cn3cc(Cl)ccc3n2)n1 (stereo unspecified),cytotoxicity at 70.5 h,-1.76%
CN1CCN(C2COC3(CCN(c4ccc(C#N)cc4)CC3)C2)CC1 (stereo unspecified),cytotoxicity at 70.5 h,-6.07%
O=C(NCC1CCCO1)c1nc2c(s1)CCCN2c1ncccn1 (stereo unspecified),cytotoxicity at 70.5 h,24.3%
Cc1ccc(CNCc2nnc3n2CC(C(F)(F)F)CC3)cc1 (stereo unspecified),cytotoxicity at 70.5 h,1.57%
Cc1nccc(N2CCCC(C)(c3[nH]ncc3C(N)=O)C2)n1 (stereo unspecified),cytotoxicity at 70.5 h,-4.04%
O=C(CN1CCCCCC1)NCc1ccc2[nH]c(=O)[nH]c2c1,cytotoxicity at 70.5 h,-8.16%
CC(C)c1nc(CN(C)Cc2cnc(N3CCOCC3)nc2)no1,cytotoxicity at 70.5 h,-6.44%
OCCn1nccc1C1CCN(CCOc2ccccc2)CC1,cytotoxicity at 70.5 h,8.03%
CO[C@H]1C[C@@H]2CN(C(=O)c3ccc(C)s3)C[C@@H]2C1,cytotoxicity at 70.5 h,-4.22%
CC(C)(CO)NCc1ccc(OCc2ccc3c(c2)OCCO3)cc1,cytotoxicity at 70.5 h,-2.91%
O=C(c1cccnc1)N1CC[C@H](OCC2CC2)[C@@H]1Cc1cccnc1,cytotoxicity at 70.5 h,-5.08%
COc1ccnc(N2CCN(C(=O)c3cnc(C4CC4)s3)CC2)n1,cytotoxicity at 70.5 h,-5.21%
CN(C)C(=O)C1OC2(CCN(C(=O)N(C)C)CC2)c2ccccc21 (stereo unspecified),cytotoxicity at 70.5 h,-19.3%
COCCN(C)C[C@@H]1CN(C(=O)c2cccc(Cl)c2)C[C@@H]1CO,cytotoxicity at 70.5 h,-13.7%
Cc1ccc2nc(CSCC(=O)Nc3nnc(C(C)C)s3)cc(=O)n2c1,cytotoxicity at 70.5 h,-6.09%
CCN(CC)S(=O)(=O)c1ccc(CCC(=O)NCc2cc(C)on2)cc1,cytotoxicity at 70.5 h,-7.82%
CNS(=O)(=O)c1ccc(C(=O)NCCNc2ncccn2)cc1,cytotoxicity at 70.5 h,-12.3%
CN(C)S(=O)(=O)N1CC[C@]2(O)CCN(c3nccs3)C[C@@H]2C1,cytotoxicity at 70.5 h,21.2%
COc1ccc(-c2noc(Cn3cnc(C)c3)n2)c(OC)c1OC,cytotoxicity at 70.5 h,-0.844%
Cc1ccc(C)c(S(=O)(=O)NC(=O)c2cccc3c2OCCO3)c1,cytotoxicity at 70.5 h,-104%
COc1ccccc1[C@@H]1CN(Cc2cnn(C)c2C)C[C@H]1C(=O)O,cytotoxicity at 70.5 h,7.39%
Cc1cccc(N2CCN(C(=O)CNCCn3cc(C)cn3)CC2)c1,cytotoxicity at 70.5 h,45%
Cn1nc(C#N)c2c1CN(C(=O)c1nc[nH]n1)CCC2,cytotoxicity at 70.5 h,-1.6%
CN(C(=O)CN1CCC(NC(=O)c2cccs2)CC1)c1ccccc1,cytotoxicity at 70.5 h,-6.85%
COc1ccc(CNC(Cc2ccsc2)c2ncccc2C)cc1OC (stereo unspecified),cytotoxicity at 70.5 h,-4.5%
Cn1cc(-c2ncnc3c2CCN(C(=O)c2cscn2)CC3)cn1,cytotoxicity at 70.5 h,22.4%
CCN(CC)S(=O)(=O)N1CC[C@H](c2ccccc2)[C@@H]2[C@H]1CCCCN2C,cytotoxicity at 70.5 h,-0.108%
O=C(c1cnccn1)N1CCc2ncnc(-c3cccnc3)c2CC1,cytotoxicity at 70.5 h,-16.1%
CCC(O)CN1CCN(C(=O)Cc2c(C)nc(C)[nH]c2=O)CC1 (stereo unspecified),cytotoxicity at 70.5 h,3.13%
COc1ccc(CNC(=O)CNc2cc3c(cc2Cl)OCCO3)cc1,cytotoxicity at 70.5 h,-0.455%
Cc1noc(C)c1CN(C)c1ncnc2ccccc12,cytotoxicity at 70.5 h,-6.84%
CN(Cc1ccccn1)C(=O)[C@]12COC[C@H]1CN(Cc1cnn(C)c1)C2,cytotoxicity at 70.5 h,-15.4%
CCn1c(N)nc2cc(C(=O)N3CCCN(C)CC3)cnc21,cytotoxicity at 70.5 h,3.17%
Cc1n[nH]c(CN2CCN(Cc3ccccc3)[C@@H]3CS(=O)(=O)C[C@@H]32)n1,cytotoxicity at 70.5 h,0.0797%
COc1cc(CNC(=O)COC2CCCC2)ccc1O,cytotoxicity at 70.5 h,-4.4%
FC(F)Oc1ccccc1CN1CCCC(c2nccn2CC2CC2)C1 (stereo unspecified),cytotoxicity at 70.5 h,-1.02%
O=C(Nc1ccc2occc2c1)N1CCCC(O)(CO)CC1 (stereo unspecified),cytotoxicity at 70.5 h,-1.52%
CCN1CC(CN(C)Cc2nc(-c3cccc(Cl)c3)oc2C)CC1=O (stereo unspecified),cytotoxicity at 70.5 h,-6.94%
COCCn1cc(CC(=O)Nc2c(C)nn(C)c2C)c2ccccc21,cytotoxicity at 70.5 h,-5.58%
N#Cc1cccc(C(=O)N2CC(c3nc(-c4cccnc4)no3)C2)c1,cytotoxicity at 70.5 h,10%
O=C(c1cccc(CNCC2CNc3ccnn3C2)c1)N1CCCC1 (stereo unspecified),cytotoxicity at 70.5 h,16.7%
O=C(CN1C=Nc2ccccc2S1(=O)=O)NCc1ccccc1,cytotoxicity at 70.5 h,-9.5%
Cc1nccn1-c1cc(CNC(=O)C2CCC(=O)N2)ccn1 (stereo unspecified),cytotoxicity at 70.5 h,-6.29%
CCc1cnccc1C(=O)Nc1ccc(C(N)=O)nc1,cytotoxicity at 70.5 h,-4.18%
Cc1cccc2nc(-c3nc4c([nH]3)CCCNC4=O)cn12,cytotoxicity at 70.5 h,16%
CNC(=O)CCNC(=O)Nc1cccc(Cl)c1SC(F)F,cytotoxicity at 70.5 h,0.534%
CN(CCc1cn[nH]c1)Cc1nc(Cc2cccc(C(F)(F)F)c2)no1,cytotoxicity at 70.5 h,3.03%
N#Cc1cccc(N2CCCC(CO)(Cc3ccccc3F)C2)n1 (stereo unspecified),cytotoxicity at 70.5 h,20.1%
CCN1CC(C(=O)N2CCC(Oc3ccccc3Cl)CC2)CC1=O (stereo unspecified),cytotoxicity at 70.5 h,4.13%
CNC(=O)c1ccc(C2CCCN(C(=O)c3sc(C)nc3C)C2)nc1 (stereo unspecified),cytotoxicity at 70.5 h,2.08%
c1cc(-c2nc3c(c(NCCc4c[nH]cn4)n2)CCNCC3)ccn1,cytotoxicity at 70.5 h,5.61%
CN(Cc1ccco1)[C@@H]1CN(Cc2cccnc2)C[C@@H]2CCCO[C@@H]21,cytotoxicity at 70.5 h,-5%
Cc1cccc(CO[C@@H]2CC[C@H]3[C@H]2OCCN3Cc2ccoc2)n1,cytotoxicity at 70.5 h,-11.3%
O=C(c1cc2c(s1)CCN2C(=O)C1CC1)N1CCCC1,cytotoxicity at 70.5 h,-4.7%
Cc1n[nH]c2nc(-c3ccccc3O)cc(C(=O)O)c12,cytotoxicity at 70.5 h,13.5%
COc1ccc(CN2CC[C@@H](O)[C@@H]2Cc2cnn(C)c2)cc1,cytotoxicity at 70.5 h,21.7%
COc1ccccc1CNC(=O)COc1c(C)n(C)ccc1=O,cytotoxicity at 70.5 h,-20.3%
Cc1nc(NCc2ccc(F)cc2)cc(C(=O)N2CCOCC2)n1,cytotoxicity at 70.5 h,-3.46%
COc1ccc(OC)c(C2CCN(C3CCN(C(C)=O)CC3)C2)c1 (stereo unspecified),cytotoxicity at 70.5 h,2.82%
c1csc(CN2CCc3nc(N4CCOCC4)nc(NC4CC4)c3C2)n1,cytotoxicity at 70.5 h,17%
CC(C)N(Cc1ccc(C#N)cc1)C(=O)Nc1ccncc1,cytotoxicity at 70.5 h,-9.08%
CN1CCC(Cc2noc(-c3cccc4c3OCC4)n2)CC1,cytotoxicity at 70.5 h,-8.69%
CC(C)c1cc(NC(=O)c2ccc(C(=O)NC(C)(C)C)cc2)[nH]n1,cytotoxicity at 70.5 h,-4.05%
O=C(c1cccs1)N1CCC(n2nc(-c3ccco3)ccc2=O)CC1,cytotoxicity at 70.5 h,11.7%
CCOCC1CC2(CCN(C(=O)c3ccccc3F)CC2)CO1 (stereo unspecified),cytotoxicity at 70.5 h,0.964%
Cn1ccc(C(=O)NCc2ccc(Cn3ccnc3)cc2)cc1=O,cytotoxicity at 70.5 h,-1.16%
CC(C)NC(=O)c1nc(COc2ccc3c(c2)OCO3)no1,cytotoxicity at 70.5 h,-8.71%
O=S(=O)(NCC1(O)CCOCC1)c1c(F)cccc1F,cytotoxicity at 70.5 h,-2.88%
COC1CN(C(=O)COC(C)=O)CCC(=O)N(C)c2ccccc21 (stereo unspecified),cytotoxicity at 70.5 h,-5.15%
COC1COC2(CCN(C(=O)c3cocn3)CC2)C1 (stereo unspecified),cytotoxicity at 70.5 h,-8.06%
COC(=O)CNC(=O)c1sc(-c2ccc(Cl)s2)nc1C,cytotoxicity at 70.5 h,-3.49%
O=C(NCCCNc1ccc(C(F)(F)F)cn1)c1ccc(F)cc1F,cytotoxicity at 70.5 h,-4.42%
CCN(Cc1ccncc1)c1cc(C2CCCNC2)nc(C)n1 (stereo unspecified),cytotoxicity at 70.5 h,-7.35%
Cc1cnn(C2CCCN(C(=O)Cc3c(C)nn(C)c3C)C2)c1 (stereo unspecified),cytotoxicity at 70.5 h,0.294%
O=C1CSC(c2ccc(O)cc2)c2c(n(C3CCOCC3)[nH]c2=O)N1 (stereo unspecified),cytotoxicity at 70.5 h,-23.1%
Cc1cccc(CN2CC3C[C@]3(NC(=O)c3ccoc3)C2)n1 (stereo partly specified),cytotoxicity at 70.5 h,-12.4%
CS(=O)(=O)N[C@@H]1CN(Cc2ccccc2)C[C@@H]2CCCO[C@@H]21,cytotoxicity at 70.5 h,-4.64%
CCc1nc(C#N)c(N2CCC(c3nc(-c4ccccc4)no3)CC2)o1,cytotoxicity at 70.5 h,0.267%
Cc1ccc(NC(=O)c2cc(S(=O)(=O)N3CCCCC3)c[nH]2)cc1F,cytotoxicity at 70.5 h,-8.62%
Cc1ccc(OCc2occc2C(=O)O)cc1,cytotoxicity at 70.5 h,-5.9%
CCOCc1nccc(-c2ccc(OCC)c(C(=O)O)c2)n1,cytotoxicity at 70.5 h,2.25%
CN1CCOC(CNC(=O)C2(c3cccc(Cl)c3)CC2)C1 (stereo unspecified),cytotoxicity at 70.5 h,-5.99%
CNS(=O)(=O)c1cccc(C(C)NCc2ccncc2)c1 (stereo unspecified),cytotoxicity at 70.5 h,-2.51%
Cc1nc(C2CCCN2CC(=O)Nc2cc(C(C)(C)C)nn2C)no1 (stereo unspecified),cytotoxicity at 70.5 h,-6.05%
Cc1cc(C2CCCCCN2Cc2cn(C)nc2C)no1 (stereo unspecified),cytotoxicity at 70.5 h,-6.86%
CC(C)c1nc(C2CCCN2Cc2ccon2)no1 (stereo unspecified),cytotoxicity at 70.5 h,-10.9%
CC(C)(C)n1ncc(NCC(O)c2ccccc2)c(Cl)c1=O (stereo unspecified),cytotoxicity at 70.5 h,25.2%
CC(C)c1nn(C)c(Cl)c1CNCc1ccc2c(c1)OCCO2,cytotoxicity at 70.5 h,3.82%
CC(C)Cc1noc(CN2CCC(C(=O)NCC3CCCO3)CC2)n1 (stereo unspecified),cytotoxicity at 70.5 h,10.6%
O=C1NC2(CCCN(C(=O)CCn3cccn3)C2)Oc2ccccc21 (stereo unspecified),cytotoxicity at 70.5 h,1.47%
Cc1cccc(C(=O)N2CCN(C(=O)Cc3ccccn3)CC2)c1C,cytotoxicity at 70.5 h,-2.92%
CC(C(=O)N1CCN(c2ccccc2)CC1)n1cc(Br)cn1 (stereo unspecified),cytotoxicity at 70.5 h,-2.65%
O=C1NC[C@@]2(C(=O)O)CN(Cc3cccc(C(F)(F)F)c3)C[C@@H]12,cytotoxicity at 70.5 h,7.18%
CC(C)n1ncc2cc(NC(=O)N3CCC(CO)CC3)cnc21,cytotoxicity at 70.5 h,3.41%
CC[C@H]1CN2CC[C@H]1C[C@@H]2CNC(=O)Nc1ccccc1,cytotoxicity at 70.5 h,-2.2%
O=C(NCc1cccnc1)C1CN(c2cnc3ccccc3n2)CCN1 (stereo unspecified),cytotoxicity at 70.5 h,19.1%
Cc1nnc(N2CCNCC2)c(C(N)=O)c1C,cytotoxicity at 70.5 h,-16.9%
CN(C)C1Cc2ccccc2N(S(=O)(=O)c2ccc(C#N)cc2)C1 (stereo unspecified),cytotoxicity at 70.5 h,-7.27%
Cc1nccn1C1CCCN(C(=O)c2ccc3c(c2)NC(=O)CO3)C1 (stereo unspecified),cytotoxicity at 70.5 h,-5.24%
CO[C@H]1CC[C@H]2[C@H]1OCCN2C(=O)CC1=CCCCC1,cytotoxicity at 70.5 h,-2.24%
O=C(NCc1nnc2n1CCC2)c1cn(-c2ccccc2)nn1,cytotoxicity at 70.5 h,-5.59%
COc1ccccc1C(=O)N(C)Cc1ncc(C)c(OC)c1C,cytotoxicity at 70.5 h,-6.37%
O=c1cccnn1CC1CN(CC2CCCC2)Cc2nccn2C1 (stereo unspecified),cytotoxicity at 70.5 h,-5.89%
CCN1CCC(N2CCN(C)C3(CCC(=O)N(CCOC)CC3)C2)CC1 (stereo unspecified),cytotoxicity at 70.5 h,-9.42%
COc1cccc(OCC2CCCN(C(=O)CCn3ccnc3)C2)c1 (stereo unspecified),cytotoxicity at 70.5 h,11.7%
CCN(CC)CCNS(=O)(=O)c1cccc(CSC)c1,cytotoxicity at 70.5 h,-8.72%
